Structures are written as SMILES.

The target of data set [1] is T1, Steryl-sulfatase (Homo sapiens) (UniProt P08842).
T1 sequence (whole entry): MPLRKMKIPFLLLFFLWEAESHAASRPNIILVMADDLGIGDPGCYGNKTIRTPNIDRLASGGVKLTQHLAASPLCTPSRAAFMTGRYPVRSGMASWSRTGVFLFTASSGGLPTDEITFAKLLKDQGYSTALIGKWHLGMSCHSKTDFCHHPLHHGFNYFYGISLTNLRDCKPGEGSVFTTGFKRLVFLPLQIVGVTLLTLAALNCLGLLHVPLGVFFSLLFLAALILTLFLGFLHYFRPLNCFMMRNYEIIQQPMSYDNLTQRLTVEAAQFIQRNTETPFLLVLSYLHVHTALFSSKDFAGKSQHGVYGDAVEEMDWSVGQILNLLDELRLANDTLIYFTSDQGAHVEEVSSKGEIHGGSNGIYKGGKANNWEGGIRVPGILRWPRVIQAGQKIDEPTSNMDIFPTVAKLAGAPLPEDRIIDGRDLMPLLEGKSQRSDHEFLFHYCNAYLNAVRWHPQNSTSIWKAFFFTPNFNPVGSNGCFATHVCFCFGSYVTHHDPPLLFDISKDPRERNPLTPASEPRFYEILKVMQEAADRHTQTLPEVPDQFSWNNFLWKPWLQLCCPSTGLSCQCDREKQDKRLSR
In words: Inhibitory activity against estrone sulfatase relative to 4-Methylcoumarin-7-O-sulfamate derivative (COUMATE).

The nature of data set [2]: Partition coefficient (logP). The following applies: octanol/water. Format: physicochemical.
Data set [3] addresses T1, Steryl-sulfatase (Homo sapiens). The data set is described as follows: Inhibitory activity against estrone sulfatase relative to Estrone-3-sulfamate (EMATE).
Data set [4] shares this target.
Description: Inhibitory activity against estrone sulfatase expressed as potency

As to `CC(=O)c1ccc(OS(N)(=O)=O)cc1`, the Potency in data set [1] was 0.0397; in data set [3] it was 0.0016. Further, the logP (commonly a log measure of how a compound divides between an organic and an aqueous phase) in data set [2] amounted to 1.1.
For `CCCCCCC(=O)c1ccc(OS(N)(=O)=O)cc1`, in that order: 2.4, 0.1 and 3.3.
For `CCCCCCCCC(=O)c1ccc(OS(N)(=O)=O)cc1`, in that order: 3.53, 0.147 and 4.1.
As to `CCCCCCCC(=O)c1ccc(OS(N)(=O)=O)cc1`, the figures for the Potency in data set [1] and in data set [3] were 2.14 and 0.0893, respectively. In data set [2], this compound yielded a logP of 3.7.
As for `C[C@]12CC[C@@H]3c4ccc(OS(N)(=O)=O)cc4CCC3[C@@H]1CCC2=O` (single isomer, unassigned) [EMATE], the Potency in data set [4] was 1; in data set [1], 24. In data set [2], this compound came in with a logP of 3.9.
Regarding `NS(=O)(=O)Oc1ccc(C(=O)c2ccccc2)cc1`, the Potency in data set [1] was 0.191; in data set [3], 0.0079. Besides, the logP in data set [2] is 2.9.
For `NS(=O)(=O)Oc1ccc(C(=O)Cc2ccccc2)cc1`, in that order: 0.364, 0.0152 and 2.9.
As for `CCCCC(=O)c1ccc(OS(N)(=O)=O)cc1`, the results for the Potency in data set [1] and in data set [3] were 0.574 and 0.0239, respectively. The logP in data set [2] turned out to be 2.5.
Take `CCCC(=O)c1ccc(OS(N)(=O)=O)cc1`: the Potency in data set [1] was found to be 0.301; in data set [3], 0.0126. Further, the log partition coefficient (logP) in data set [2] is 2.1.
With `NS(=O)(=O)Oc1ccc(C=O)cc1`, the Potency in data set [1] came out at 0.0472; in data set [3] it was 0.0019. The compound also yielded a logP in data set [2] of 1.4.
As to `Cc1cc(=O)oc2cc(OS(N)(=O)=O)ccc12`, the results for the Potency in data set [4] and in data set [3] were 1 and 0.0417, respectively. Further, the logP in data set [2] was 1.7.
As for `CCCCCCCCCC(=O)c1ccc(OS(N)(=O)=O)cc1`, the Potency is 0.923 in data set [1] and 0.0385 in data set [3]. Further, the logP in data set [2] was determined as 4.4.
The corresponding values for `NS(=O)(=O)Oc1ccc(C(=O)/C=C/c2ccccc2)cc1` are 0.0456, 0.0019 and 3.4.
